Test results from patent US10385057B2, “Pyrazole compounds and methods of making and using same” (Lundbeck La Jolla Research Center, Inc., priority 2015, dated 2019).

What was measured:
FAAH = target: T1, FAAH (Mus musculus, UniProt O08914); experiment: In vitro competitive activity-based protein profiling, mouse FAAH; format: biochemical; conditions: for inhibition at 1 µM: read-out: FAAH % inh. 1 μM (mouse)
T1 construct: mouse brain membrane fraction or cell lysates for mouse assays; from tissue
T1 sequence (O08914 1-579): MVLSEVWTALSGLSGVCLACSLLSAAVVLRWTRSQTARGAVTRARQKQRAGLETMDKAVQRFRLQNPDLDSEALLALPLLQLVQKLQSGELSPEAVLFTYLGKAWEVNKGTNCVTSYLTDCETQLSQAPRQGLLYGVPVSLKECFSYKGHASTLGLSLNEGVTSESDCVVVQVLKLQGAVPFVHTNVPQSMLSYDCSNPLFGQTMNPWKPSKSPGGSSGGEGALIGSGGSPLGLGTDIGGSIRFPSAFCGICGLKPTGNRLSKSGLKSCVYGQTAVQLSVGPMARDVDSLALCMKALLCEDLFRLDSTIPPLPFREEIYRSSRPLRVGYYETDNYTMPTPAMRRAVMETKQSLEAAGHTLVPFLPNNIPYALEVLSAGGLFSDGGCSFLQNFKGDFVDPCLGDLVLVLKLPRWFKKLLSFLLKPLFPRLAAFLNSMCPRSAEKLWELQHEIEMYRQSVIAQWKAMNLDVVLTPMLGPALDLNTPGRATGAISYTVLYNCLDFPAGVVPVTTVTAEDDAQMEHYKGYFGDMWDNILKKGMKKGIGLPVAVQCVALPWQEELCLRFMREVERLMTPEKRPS
Summary of the method: (§1)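 Activity measured as fluorescent gel-band intensity of MAGL and FAAH after SDS-PAGE. Before labelling with FP-Rh or HT-01 (30 min, 37 °C), proteomes at 1.0 mg/mL (mouse brain membrane or lysates; human prefrontal cortex or cell membranes) were exposed to varying inhibitor concentrations for 30 min at 37 °C.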

MAGL = target: T2, MAGL (Mus musculus, UniProt O35678); experiment: In vitro competitive activity-based protein profiling, mouse MAGL; format: biochemical; conditions: for inhibition at 1 µM: read-out: MAGL % inh. 1 μM (mouse)
T2 construct: mouse brain membrane fraction or cell lysates for mouse assays; from tissue
T2 sequence (O35678 1-303): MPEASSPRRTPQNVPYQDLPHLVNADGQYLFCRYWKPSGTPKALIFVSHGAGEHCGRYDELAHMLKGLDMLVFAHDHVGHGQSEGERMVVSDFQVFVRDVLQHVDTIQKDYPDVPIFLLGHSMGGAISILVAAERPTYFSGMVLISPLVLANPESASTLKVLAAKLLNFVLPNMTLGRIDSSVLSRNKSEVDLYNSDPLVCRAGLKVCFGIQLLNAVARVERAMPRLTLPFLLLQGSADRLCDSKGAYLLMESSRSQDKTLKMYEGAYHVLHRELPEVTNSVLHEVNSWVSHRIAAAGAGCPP
Summary of the method: as §1

| Compound | IC50 (FAAH) [nM] | inhibition at 1 µM (FAAH) [%] | IC50 (MAGL) [nM] | inhibition at 1 µM (MAGL) [%] |
| --- | --- | --- | --- | --- |
| Cc1ccc(CN2CC3CN(C(=O)n4cc(C(F)(F)F)cn4)CC3C2)cc1 (centres unmarked) [Example 147, (5-(4-methylbenzyl)hexahydropyrrolo[3,4-c]pyrrol-2(1H)-yl)(4-(trifluoromethyl)-1H-pyrazol-1-yl)methanone] | ≤ 100 | ≥ 75 | ≤ 100 | ≥ 75 |
| COc1ccc(CN2CC3CN(C(=O)n4cc(C(F)(F)F)cn4)CC3C2)cc1 (centres unmarked) [Example 148, (5-(4-methoxybenzyl)hexahydropyrrolo[3,4-c]pyrrol-2(1H)-yl)(4-(trifluoromethyl)-1H-pyrazol-1-yl)methanone] | ≤ 100 | ≥ 75 | 100 to 1000 | ≥ 75 |
| O=C(N1CC2CN(Cc3cccc(Cl)c3)CC2C1)n1cc(C(F)(F)F)cn1 (centres unmarked) [Example 149, (5-(3-chlorobenzyl)hexahydropyrrolo[3,4-c]pyrrol-2(1H)-yl)(4-(trifluoromethyl)-1H-pyrazol-1-yl)methanone] | ≤ 100 | ≥ 75 | 100 to 1000 | ≥ 75 |
| O=C(N1CC2CN(Cc3cccc(F)c3)CC2C1)n1cc(C(F)(F)F)cn1 (centres unmarked) [Example 150, (5-(3-fluorobenzyl)hexahydropyrrolo[3,4-c]pyrrol-2(1H)-yl)(4-(trifluoromethyl)-1H-pyrazol-1-yl)methanone] | ≤ 100 | ≥ 75 | ≤ 100 | ≥ 75 |
| O=C(N1CC2CN(Cc3ccccc3Cl)CC2C1)n1cc(C(F)(F)F)cn1 (centres unmarked) [Example 151, (5-(2-chlorobenzyl)hexahydropyrrolo[3,4-c]pyrrol-2(1H)-yl)(4-(trifluoromethyl)-1H-pyrazol-1-yl)methanone] | ≤ 100 | ≥ 75 | ≤ 100 | ≥ 75 |
| O=C(N1CC2CN(Cc3ccccc3F)CC2C1)n1cc(C(F)(F)F)cn1 (centres unmarked) [Example 152, (5-(2-fluorobenzyl)hexahydropyrrolo[3,4-c]pyrrol-2(1H)-yl)(4-(trifluoromethyl)-1H-pyrazol-1-yl)methanone] | ≤ 100 | ≥ 75 | ≤ 100 | ≥ 75 |
| Cc1ccccc1CN1CC2CN(C(=O)n3cc(C(F)(F)F)cn3)CC2C1 (centres unmarked) [Example 153, (5-(2-methylbenzyl)hexahydropyrrolo[3,4-c]pyrrol-2(1H)-yl)(4-(trifluoromethyl)-1H-pyrazol-1-yl)methanone] | ≤ 100 | ≥ 75 | ≤ 100 | ≥ 75 |
| COc1ccccc1CN1CC2CN(C(=O)n3cc(C(F)(F)F)cn3)CC2C1 (centres unmarked) [Example 154, (5-(2-methoxybenzyl)hexahydropyrrolo[3,4-c]pyrrol-2(1H)-yl)(4-(trifluoromethyl)-1H-pyrazol-1-yl)methanone] | ≤ 100 | ≥ 75 | ≤ 100 | ≥ 75 |
| O=C(N1CC2CN(Cc3ccccc3C(F)(F)F)CC2C1)n1cc(C(F)(F)F)cn1 (centres unmarked) [Example 155, (4-(trifluoromethyl)-1H-pyrazol-1-yl)(5-(2-(trifluoromethyl)benzyl)hexahydropyrrolo[3,4-c]pyrrol-2(1H)-yl)methanone] | ≤ 100 | ≥ 75 | ≤ 100 | ≥ 75 |
| O=C(N1CC2CN(Cc3ccccc3N3CCCC3)CC2C1)n1cc(C(F)(F)F)cn1 (centres unmarked) [Example 156, (5-(2-(pyrrolidin-1-yl)benzyl)hexahydropyrrolo[3,4-c]pyrrol-2(1H)-yl)(4-(trifluoromethyl)-1H-pyrazol-1-yl)methanone] | 100 to 1000 | ≥ 75 | ≤ 100 | ≥ 75 |
| O=C(N1CC2CN(Cc3ccccc3N3CCOCC3)CC2C1)n1cc(C(F)(F)F)cn1 (centres unmarked) [Example 157, (5-(2-morpholinobenzyl)hexahydropyrrolo[3,4-c]pyrrol-2(1H)-yl)(4-(trifluoromethyl)-1H-pyrazol-1-yl)methanone] | 100 to 1000 | ≥ 75 | ≤ 100 | ≥ 75 |
| CN(Cc1ccc(Oc2ccccc2)cc1)[C@@H]1C[C@@H]2CN(C(=O)n3cc(Cl)cn3)C[C@@H]2C1 [Example 158, (4-chloro-1H-pyrazol-1-yl)(cis-5-(methyl(4-phenoxybenzyl)amino)hexahydrocyclopenta[c]pyrrol-2(1H)-yl)methanone] | – | ≥ 75 | – | ≥ 75 |
| CN(Cc1ccc(Oc2ccccc2)cc1)[C@H]1C[C@@H]2CN(C(=O)n3cc(Cl)cn3)C[C@@H]2C1 [Example 159, (4-chloro-1H-pyrazol-1-yl)(trans-5-(methyl(4-phenoxybenzyl)amino)hexahydrocyclopenta[c]pyrrol-2(1H)-yl)methanone] | – | ≥ 75 | – | ≥ 75 |
| CN(Cc1ccc(Oc2cccnc2)cc1)[C@@H]1C[C@@H]2CN(C(=O)n3cc(Cl)cn3)C[C@@H]2C1 [Example 160, (4-chloro-1H-pyrazol-1-yl)(cis-5-(methyl(4-(pyridin-3-yloxy)benzyl)amino)hexahydrocyclopenta[c]pyrrol-2(1H)-yl)methanone] | – | ≥ 75 | – | ≥ 75 |
| CN(Cc1ccc(Oc2cccnc2)cc1)[C@H]1C[C@@H]2CN(C(=O)n3cc(Cl)cn3)C[C@@H]2C1 [Example 161, (4-chloro-1H-pyrazol-1-yl)(trans-5-(methyl(4-(pyridin-3-yloxy)benzyl)amino)hexahydrocyclopenta[c]pyrrol-2(1H)-yl)methanone] | – | ≥ 75 | – | ≥ 75 |
| CN(Cc1cccc(Oc2ccccc2)c1)[C@H]1C[C@@H]2CN(C(=O)n3cc(Cl)cn3)C[C@@H]2C1 [Example 162, (4-chloro-1H-pyrazol-1-yl)(trans-5-(methyl(3-phenoxybenzyl)amino)hexahydrocyclopenta[c]pyrrol-2(1H)-yl)methanone] | ≤ 100 | ≥ 75 | ≤ 100 | ≥ 75 |
| CN(Cc1cccc(Oc2cccnc2)c1)[C@H]1C[C@@H]2CN(C(=O)n3cc(Cl)cn3)C[C@@H]2C1 [Example 163, (4-chloro-1H-pyrazol-1-yl)(trans-5-(methyl(3-(pyridin-3-yloxy)benzyl)amino)hexahydrocyclopenta[c]pyrrol-2(1H)-yl)methanone] | ≤ 100 | ≥ 75 | ≤ 100 | ≥ 75 |
| CN(Cc1cccc(Oc2ccccc2)c1)[C@@H]1C[C@@H]2CN(C(=O)n3cc(Cl)cn3)C[C@@H]2C1 [Example 164, (4-chloro-1H-pyrazol-1-yl)(cis-5-(methyl(3-phenoxybenzyl)amino)hexahydrocyclopenta[c]pyrrol-2(1H)-yl)methanone] | ≤ 100 | ≥ 75 | ≤ 100 | ≥ 75 |
| CN(Cc1cccc(Oc2cccnc2)c1)[C@@H]1C[C@@H]2CN(C(=O)n3cc(Cl)cn3)C[C@@H]2C1 [Example 165, (4-chloro-1H-pyrazol-1-yl)(cis-5-(methyl(3-(pyridin-3-yloxy)benzyl)amino)hexahydrocyclopenta[c]pyrrol-2(1H)-yl)methanone] | ≤ 100 | ≥ 75 | 100 to 1000 | ≥ 75 |
| O=C(N1CCC2(CCN(Cc3ccc(F)cc3)C2)C1)n1cc(C(F)(F)F)cn1 (centres unmarked) [Example 166, (7-(4-fluorobenzyl)-2,7-diazaspiro[4.4]nonan-2-yl)(4-(trifluoromethyl)-1H-pyrazol-1-yl)methanone] | 100 to 1000 | ≥ 75 | 100 to 1000 | ≥ 75 |
| COc1ccc(CN2CCC3(CCN(C(=O)n4cc(C(F)(F)F)cn4)C3)C2)cc1 (centres unmarked) [Example 167, (7-(4-methoxybenzyl)-2,7-diazaspiro[4.4]nonan-2-yl)(4-(trifluoromethyl)-1H-pyrazol-1-yl)methanone] | 100 to 1000 | ≥ 75 | 100 to 1000 | ≥ 75 |
| O=C(N1CCC2(CCN(Cc3cccc(Cl)c3)C2)C1)n1cc(C(F)(F)F)cn1 (centres unmarked) [Example 168, (7-(3-chlorobenzyl)-2,7-diazaspiro[4.4]nonan-2-yl)(4-(trifluoromethyl)-1H-pyrazol-1-yl)methanone] | ≤ 100 | ≥ 75 | ≤ 100 | ≥ 75 |
